Results reported in the NIST ThermoML archive (doi:10.1021/je200707b).
± gives the expanded uncertainty stated by the source.

Columns and labels:
[1] = xn = mol fraction of the nth substance listed; details: 101.3 kPa, Liquid; for viscosity: Falling or rolling sphere viscometry; for mass density: Vibrating tube method
[2] = refractive index (Na D-line) (dimensionless); xn = mol fraction of the nth substance listed; details: 298.15 K, 101.3 kPa, Liquid, Standard Abbe refractometry

CC(=O)O.CCCCN [butylammonium acetate] + CCCCO
[1]
Details	mass density, 293.15 K [kg/m3]	mass density, 298.15 K [kg/m3]	mass density, 303.15 K [kg/m3]	mass density, 308.15 K [kg/m3]	mass density, 313.15 K [kg/m3]	viscosity, 293.15 K [mPa·s]	viscosity, 298.15 K [mPa·s]	viscosity, 303.15 K [mPa·s]	viscosity, 308.15 K [mPa·s]	viscosity, 313.15 K [mPa·s]
x1 = 0.029	817.08 ± 0.38	813.28 ± 0.38	809.45 ± 0.38	805.57 ± 0.38	801.67 ± 0.38	3.564 ± 0.098	3.19 ± 0.088	2.787 ± 0.076	2.455 ± 0.067	2.164 ± 0.059
x1 = 0.0583	824.15 ± 0.38	820.36 ± 0.38	816.55 ± 0.38	812.7 ± 0.38	808.82 ± 0.38	4.397 ± 0.12	3.806 ± 0.1	3.318 ± 0.091	2.908 ± 0.08	2.592 ± 0.071
x1 = 0.1003	833.62 ± 0.38	829.88 ± 0.38	826.11 ± 0.38	822.23 ± 0.38	818.46 ± 0.38	5.588 ± 0.15	4.823 ± 0.13	4.165 ± 0.11	3.636 ± 0.1	3.17 ± 0.087
x1 = 0.1981	853.55 ± 0.39	849.9 ± 0.39	846.22 ± 0.39	842.52 ± 0.39	838.78 ± 0.39	9.789 ± 0.27	8.389 ± 0.23	7.151 ± 0.2	6.123 ± 0.17	5.297 ± 0.14
x1 = 0.2981	871.49 ± 0.39	867.92 ± 0.39	864.33 ± 0.39	860.72 ± 0.39	857.08 ± 0.39	17.14 ± 0.47	14.41 ± 0.4	12.18 ± 0.33	10.39 ± 0.28	8.894 ± 0.24
x1 = 0.399	887.71 ± 0.4	884.21 ± 0.4	880.69 ± 0.4	877.17 ± 0.4	873.62 ± 0.4	28.33 ± 0.78	23.48 ± 0.64	19.6 ± 0.54	16.5 ± 0.45	14 ± 0.38
x1 = 0.497	901.99 ± 0.4	898.53 ± 0.4	895.09 ± 0.4	891.62 ± 0.4	888.15 ± 0.4	50.23 ± 1.3	41.01 ± 1.1	33.21 ± 0.91	28.45 ± 0.78	23.98 ± 0.66
x1 = 0.6489	921.84 ± 0.41	918.48 ± 0.41	915.12 ± 0.41	911.75 ± 0.41	908.37 ± 0.41	107.74 ± 3.8	86.03 ± 2.7	69.14 ± 2	56.31 ± 1.5	45.89 ± 1.3
x1 = 0.7984	939.21 ± 0.41	935.95 ± 0.41	932.68 ± 0.41	929.4 ± 0.41	926.1 ± 0.41	225.04 ± 12	170.61 ± 7.9	138.1 ± 5.7	109.79 ± 3.9	87.65 ± 2.8
x1 = 0.9003	949.8 ± 0.42	946.58 ± 0.42	943.37 ± 0.42	940.16 ± 0.41	936.93 ± 0.41	389.54 ± 27	287.99 ± 17	216.86 ± 11	167.15 ± 7.6	129.84 ± 5.1

[2]
Details	refractive index
x1 = 0.029	1.3999 ± 0.0011
x1 = 0.0583	1.4023 ± 0.0011
x1 = 0.1003	1.4053 ± 0.0011
x1 = 0.1981	1.4115 ± 0.0011
x1 = 0.2981	1.417 ± 0.0011
x1 = 0.399	1.4217 ± 0.0011
x1 = 0.497	1.4256 ± 0.0011
x1 = 0.6489	1.4314 ± 0.0011
x1 = 0.7984	1.4366 ± 0.0011
x1 = 0.9003	1.4399 ± 0.0011

CC(=O)O.CCCCN [butylammonium acetate] + CCCO
[1]
Details	mass density, 293.15 K [kg/m3]	mass density, 298.15 K [kg/m3]	mass density, 303.15 K [kg/m3]	mass density, 308.15 K [kg/m3]	mass density, 313.15 K [kg/m3]	viscosity, 293.15 K [mPa·s]	viscosity, 298.15 K [mPa·s]	viscosity, 303.15 K [mPa·s]	viscosity, 308.15 K [mPa·s]	viscosity, 313.15 K [mPa·s]
x1 = 0.0315	814.1 ± 0.38	810.13 ± 0.38	806.12 ± 0.38	802.09 ± 0.38	798.01 ± 0.38	2.862 ± 0.079	2.496 ± 0.069	2.202 ± 0.06	1.955 ± 0.054	1.672 ± 0.046
x1 = 0.0601	822.82 ± 0.38	818.91 ± 0.38	814.95 ± 0.38	810.95 ± 0.38	806.91 ± 0.38	3.515 ± 0.097	3.158 ± 0.087	2.773 ± 0.076	2.447 ± 0.067	2.167 ± 0.06
x1 = 0.0977	833.38 ± 0.39	829.52 ± 0.38	825.63 ± 0.38	821.7 ± 0.38	817.72 ± 0.38	4.733 ± 0.13	4.116 ± 0.11	3.595 ± 0.099	3.157 ± 0.087	2.828 ± 0.078
x1 = 0.198	857.48 ± 0.39	853.76 ± 0.39	850 ± 0.39	846.22 ± 0.39	842.42 ± 0.39	8.602 ± 0.24	7.371 ± 0.2	6.367 ± 0.17	5.493 ± 0.15	4.77 ± 0.13
x1 = 0.3002	877.71 ± 0.4	874.1 ± 0.4	870.46 ± 0.39	866.8 ± 0.39	863.11 ± 0.39	17.5 ± 0.48	14.77 ± 0.4	12.51 ± 0.34	10.66 ± 0.29	9.154 ± 0.25
x1 = 0.4021	894.7 ± 0.4	891.19 ± 0.4	887.65 ± 0.4	884.1 ± 0.4	880.52 ± 0.4	31.54 ± 0.86	26.08 ± 0.72	22.23 ± 0.61	18.48 ± 0.51	15.72 ± 0.43
x1 = 0.497	908.39 ± 0.4	904.94 ± 0.4	901.48 ± 0.4	898.01 ± 0.4	894.53 ± 0.4	47.48 ± 1.3	38.69 ± 1.1	31.74 ± 0.87	26.4 ± 0.72	22.13 ± 0.61
x1 = 0.6487	927.09 ± 0.41	923.74 ± 0.41	920.37 ± 0.41	917 ± 0.41	913.6 ± 0.41	108.49 ± 3.9	87.22 ± 2.8	70.42 ± 2	56.62 ± 1.5	46.76 ± 1.3
x1 = 0.799	942.52 ± 0.42	939.27 ± 0.41	936.01 ± 0.41	932.73 ± 0.41	929.43 ± 0.41	244.69 ± 14	186.83 ± 9	148.78 ± 6.4	116.88 ± 4.3	93.14 ± 3
x1 = 0.8981	951.47 ± 0.42	948.25 ± 0.42	945.03 ± 0.42	941.83 ± 0.42	938.61 ± 0.41	445.2 ± 33	326.53 ± 21	244.83 ± 14	186.41 ± 9	144.84 ± 6.1

[2]
Details	refractive index
x1 = 0.0315	1.3875 ± 0.0011
x1 = 0.0601	1.3912 ± 0.0011
x1 = 0.0977	1.3953 ± 0.0011
x1 = 0.198	1.4045 ± 0.0011
x1 = 0.3002	1.4122 ± 0.0011
x1 = 0.4021	1.4185 ± 0.0011
x1 = 0.497	1.4236 ± 0.0011
x1 = 0.6487	1.4305 ± 0.0011
x1 = 0.799	1.4362 ± 0.0011
x1 = 0.8981	1.4395 ± 0.0011
